Data: ChEMBL document CHEMBL1138976, “Anti-HIV activity of stilbene-related heterocyclic compounds” (Bioorg Med Chem Lett, 2006)
Active and inactive are the calls of the source. The calls are words filed in the database; no cut-off is given here.

Experiments:
[1] = molecular target: Nuclear factor NF-kappa-B complex (Homo sapiens) (UniProt Q00653+P19838+Q04206); experiment: Inhibition of TNFalpha activated NF-kappaB mediated transactivation of HIV-1 LTR Luc in 5.1 cells at 100 uM; type: functional, cell-based
Sequence of Nuclear factor NF-kappa-B complex (Homo sapiens) (P19838 whole entry, looked up): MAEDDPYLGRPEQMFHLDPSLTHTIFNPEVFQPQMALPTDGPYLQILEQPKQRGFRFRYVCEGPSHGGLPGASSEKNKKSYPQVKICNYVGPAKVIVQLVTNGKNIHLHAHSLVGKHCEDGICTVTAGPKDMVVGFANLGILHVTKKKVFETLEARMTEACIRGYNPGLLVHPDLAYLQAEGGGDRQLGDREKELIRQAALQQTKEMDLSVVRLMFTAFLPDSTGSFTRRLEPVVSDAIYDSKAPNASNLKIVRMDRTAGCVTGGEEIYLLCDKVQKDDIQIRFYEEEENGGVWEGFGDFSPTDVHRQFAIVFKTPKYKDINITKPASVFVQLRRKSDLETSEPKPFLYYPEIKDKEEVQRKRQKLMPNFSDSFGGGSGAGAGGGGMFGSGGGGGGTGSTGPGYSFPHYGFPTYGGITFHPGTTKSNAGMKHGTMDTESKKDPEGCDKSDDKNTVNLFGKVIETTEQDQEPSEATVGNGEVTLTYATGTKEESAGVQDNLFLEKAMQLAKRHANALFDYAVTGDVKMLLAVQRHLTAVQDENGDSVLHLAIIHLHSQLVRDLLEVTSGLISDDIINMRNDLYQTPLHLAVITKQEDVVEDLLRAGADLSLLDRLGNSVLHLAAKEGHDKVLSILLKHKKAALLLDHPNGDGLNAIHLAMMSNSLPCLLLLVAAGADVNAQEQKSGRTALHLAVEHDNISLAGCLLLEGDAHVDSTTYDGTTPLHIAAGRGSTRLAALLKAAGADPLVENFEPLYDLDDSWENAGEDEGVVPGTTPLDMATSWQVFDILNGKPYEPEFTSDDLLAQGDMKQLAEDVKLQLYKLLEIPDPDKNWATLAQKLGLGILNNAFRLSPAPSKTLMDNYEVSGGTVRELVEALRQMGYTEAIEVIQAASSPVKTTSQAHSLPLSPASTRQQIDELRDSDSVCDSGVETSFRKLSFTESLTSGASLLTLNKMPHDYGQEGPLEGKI
Sequence of Nuclear factor NF-kappa-B complex (Homo sapiens) (Q00653 whole entry, looked up): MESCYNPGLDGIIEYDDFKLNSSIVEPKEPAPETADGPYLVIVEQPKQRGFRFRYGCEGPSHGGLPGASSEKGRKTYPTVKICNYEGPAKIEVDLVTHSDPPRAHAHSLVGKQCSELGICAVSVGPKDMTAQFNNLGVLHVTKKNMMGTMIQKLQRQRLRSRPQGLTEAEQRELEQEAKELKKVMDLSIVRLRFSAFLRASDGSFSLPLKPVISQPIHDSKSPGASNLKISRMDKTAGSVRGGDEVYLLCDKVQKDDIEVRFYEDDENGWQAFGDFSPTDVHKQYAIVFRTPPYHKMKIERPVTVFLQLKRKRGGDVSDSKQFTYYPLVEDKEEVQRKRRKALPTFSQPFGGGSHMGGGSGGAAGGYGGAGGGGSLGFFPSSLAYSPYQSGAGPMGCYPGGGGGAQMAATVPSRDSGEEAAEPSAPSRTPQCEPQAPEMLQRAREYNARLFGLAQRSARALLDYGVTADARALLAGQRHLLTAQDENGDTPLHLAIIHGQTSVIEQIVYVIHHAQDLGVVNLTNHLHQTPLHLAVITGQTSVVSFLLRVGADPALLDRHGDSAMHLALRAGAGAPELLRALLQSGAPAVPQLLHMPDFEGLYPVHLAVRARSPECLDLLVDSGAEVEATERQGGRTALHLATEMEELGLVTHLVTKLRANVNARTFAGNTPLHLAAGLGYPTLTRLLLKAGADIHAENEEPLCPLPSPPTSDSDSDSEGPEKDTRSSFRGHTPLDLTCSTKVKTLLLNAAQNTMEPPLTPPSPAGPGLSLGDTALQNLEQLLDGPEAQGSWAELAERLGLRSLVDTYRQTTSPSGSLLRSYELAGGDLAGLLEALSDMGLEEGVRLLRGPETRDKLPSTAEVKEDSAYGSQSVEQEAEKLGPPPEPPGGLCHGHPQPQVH
Sequence of Nuclear factor NF-kappa-B complex (Homo sapiens) (Q04206 whole entry, looked up): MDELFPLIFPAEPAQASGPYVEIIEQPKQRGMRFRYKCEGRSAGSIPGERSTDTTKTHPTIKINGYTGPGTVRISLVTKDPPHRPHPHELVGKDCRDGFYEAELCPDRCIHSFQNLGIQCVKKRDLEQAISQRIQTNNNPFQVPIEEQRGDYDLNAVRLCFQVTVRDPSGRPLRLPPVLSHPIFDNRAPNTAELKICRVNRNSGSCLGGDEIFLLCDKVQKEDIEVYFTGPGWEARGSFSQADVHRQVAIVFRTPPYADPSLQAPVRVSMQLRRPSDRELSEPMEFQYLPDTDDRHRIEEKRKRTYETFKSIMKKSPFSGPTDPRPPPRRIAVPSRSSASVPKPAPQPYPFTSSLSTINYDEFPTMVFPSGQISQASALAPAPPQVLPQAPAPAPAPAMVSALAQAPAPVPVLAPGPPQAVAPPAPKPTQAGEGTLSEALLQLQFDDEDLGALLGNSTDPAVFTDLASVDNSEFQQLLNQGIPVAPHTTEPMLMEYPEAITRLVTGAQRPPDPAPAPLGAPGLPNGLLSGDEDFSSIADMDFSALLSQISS

[2] = system: Human immunodeficiency virus; experiment: Specificity against NF-kappaB and Tat proteins assessed by activity in Hela Tet-ON assay; type: functional
[3] = molecular target: T1, Protein Tat (Human immunodeficiency virus type 1 group M subtype B (isolate PCV12)(HIV-1)) (UniProt P04326); experiment: Inhibition of Tat activity in HeLa cells transfected with Tat-Luc at 100 uM; type: functional, cell-based
T1 sequence (whole entry): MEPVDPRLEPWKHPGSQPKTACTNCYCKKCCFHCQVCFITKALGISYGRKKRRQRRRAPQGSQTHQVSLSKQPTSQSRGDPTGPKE

[4] = system: Human immunodeficiency virus; experiment: Inhibition of HIV replication by recombinant virus assay; type: functional, organism-based
[5] = Cytotoxicity by Propidium Iodide staining
[6] = system: Human immunodeficiency virus; experiment: Ratio of cytotoxic activity to anti HIV activity; type: functional

| Compound | inhibition [1] [%] | inhibition [3] [%] | IC50 ([4]; Human immunodeficiency virus 1) [µM] | IC50 [4] [µM] | Activity [2] | CC50 [5] [µM] | Ratio CC50/IC50 [6] |
| --- | --- | --- | --- | --- | --- | --- | --- |
| OC1(Cc2ccccc2Cl)c2cc(Cl)c(Cl)cc2C2=NCCN21 (stereo not drawn) | 100 | 99.6 | 22.8 | – | Active | 30.1 | 1.3 |
| COc1cc(Cc2nnc(O)c3ccccc23)cc(OC)c1OC | 96.5 | < 0 | 51.7 | – | inactive | 135 | 2.6 |
| C=CCn1nc(Cc2ccc(OC)cc2)c2ccccc2c1=O | 50 | 2.9 | 30.5 | – | inactive | 68.6 | 2.3 |
| Cn1nc(Cc2cccc3ccccc23)c2ccccc2c1=O | 100 | 43.2 | 11 | – | Active | 62.9 | 5.7 |
| OC1(Cc2ccc(Cl)cc2)c2ccccc2C2=NCCN21 (stereo not drawn) | < 0 | 38.4 | 71 | – | inactive | > 168 | – |
| Cn1nc(Cc2ccccc2)c2ccccc2c1=O | 19.4 | 11.4 | 47.5 | – | – | > 156 | >3.3 |
| O=c1c2ccccc2c(Cc2ccc(Cl)cc2)nn1-c1ccc(Br)cc1 | < 0 | < 0 | 88.1 | – | – | 91.8 | 1 |
| CCn1nc(Cc2ccc(OC)cc2)c2ccccc2c1=O | 93.5 | 14.2 | 22.3 | – | inactive | 89.5 | 4 |
| OC1(Cc2ccc(Cl)c(Cl)c2)c2ccccc2C2=NCCCN21 (stereo not drawn) | 67.7 | 60 | 26.1 | – | inactive | 85.2 | 3.3 |
| O=C1O/C(=C\c2ccc(Cl)cc2)c2ccccc21 | 84.8 | 84.6 | 23.8 | – | Active | > 195 | >8.2 |
| Cn1nc(Cc2ccc3c(c2)OCO3)c2ccccc2c1=O | 97.2 | 25.5 | 27.4 | – | inactive | 131 | 4.8 |
| CSc1ccc(/C=C2\OC(=O)c3ccccc32)cc1 | 86.7 | 89.7 | 23.4 | – | Active | > 187 | >8 |
| Oc1nnc(Cc2ccccc2Cl)c2cc(Cl)c(Cl)cc12 | 65.9 | 11.2 | 22 | – | inactive | > 147 | >6.7 |
| Cc1ccc2c(c1)/C(=C/c1ccccc1Cl)OC2=O | 71 | < 0 | – | 133 | inactive | > 185 | >1.4 |
| Oc1nnc(Cc2ccc(Cl)cc2Cl)c2ccccc12 | 99 | 53.9 | 96.2 | – | inactive | 58 | 0.6 |
| COc1ccc(CC2(O)c3ccccc3C3=NCCCN32)cc1 (stereo not drawn) | < 0 | 3.8 | 74.2 | – | – | > 162 | >2.2 |
| CSc1ccc(CC2(O)c3ccccc3C3=NCCCN32)cc1 (stereo not drawn) | 99.8 | 13.9 | 61.5 | – | inactive | 142 | 2.3 |
| Cn1nc(Cc2ccc(Cl)cc2Cl)c2ccccc2c1=O | < 0 | 14 | 18.8 | – | – | 112 | 6 |
| OC1(Cc2ccc(Cl)cc2Cl)c2ccccc2C2=NCCN21 (stereo not drawn) | < 0 | 86.6 | 13.8 | – | inactive | 87.5 | 6.3 |

Continued, in another order:

| inhibition [1] [%] | inhibition [3] [%] | IC50 ([4]; Human immunodeficiency virus 1) [µM] | IC50 [4] [µM] | Compound | Activity [2] | CC50 [5] [µM] | Ratio CC50/IC50 [6] |
| --- | --- | --- | --- | --- | --- | --- | --- |
| 14.9 | 28.4 | 19.5 | – | Oc1nnc(Cc2ccc(Cl)c(Cl)c2)c2cc(Cl)c(Cl)cc12 | – | 64.7 | 3.3 |
| 99.7 | < 0 | 66.7 | – | OC1(Cc2ccccc2Cl)c2ccccc2C2=NCCCN21 (stereo not drawn) | inactive | 78.6 | 1.2 |
| 100 | 75.3 | 27.6 | – | COc1ccc(CC2(O)c3cc(Cl)c(Cl)cc3C3=NCCN32)cc1 (stereo not drawn) | inactive | 44.1 | 1.6 |
| 83 | 6.7 | 16 | – | CCCCn1nc(Cc2ccc(OC)c(OC)c2)c2ccccc2c1=O | Active | 70.3 | 4.4 |
| 86.4 | < 0 | 58.7 | – | O=c1c2ccccc2c(Cc2ccc(Cl)cc2)nn1-c1ccccc1 | inactive | 67.7 | 1.2 |
| 87.6 | 74 | 14.3 | – | COc1ccc(/C=C2\OC(=O)c3ccccc32)cc1 | Active | – | – |
| 3.2 | < 0 | 45.6 | – | O=C1O/C(=C\c2ccc(Cl)cc2)c2cc(Cl)c(Cl)cc21 | – | > 154 | >3.4 |
| 96.8 | 91.8 | 15.8 | – | Cc1ccc2c(c1)/C(=C/c1ccc(Cl)cc1)OC2=O | Active | – | – |
| 12.6 | < 0 | 15.7 | – | COc1ccc(Cc2nnc(O)c3ccccc23)cc1 | – | > 149 | >9.5 |
| < 0 | 6.5 | > 50 | – | O=C1O/C(=C\c2cccc3ccccc23)c2ccccc21 | – | – | – |
| 54.8 | 29.6 | 89.5 | – | O=c1c2ccccc2c(Cc2ccc(Cl)cc2)nn1-c1ccc([N+](=O)[O-])cc1 | inactive | 96.3 | 1.1 |
| 99.9 | 11.8 | 16.6 | – | Cn1nc(Cc2ccc3ccccc3c2)c2ccccc2c1=O | Active | 57.2 | 3.5 |
| 73 | 18.3 | 21.6 | – | Cn1nc(Cc2ccccc2Cl)c2ccccc2c1=O | inactive | > 176 | >8.2 |
| 91.8 | 87.2 | 12.2 | – | O=C1O/C(=C\c2ccc3c(c2)OCO3)c2ccccc21 | Active | 138 | 11.3 |
| 67.3 | 29.8 | 41.6 | – | Oc1nnc(Cc2ccccc2Cl)c2ccccc12 | inactive | > 185 | >4.5 |
| 82.1 | 11.5 | 12.8 | – | CC(C)(C)n1nc(Cc2ccc(Cl)cc2)c2ccccc2c1=O | inactive | 72.1 | 5.6 |
| < 0 | 76.8 | – | 24.4 | O=C1O/C(=C\c2ccccc2Cl)c2ccccc21 (stereo in doubt; 1b) | inactive | > 195 | >8 |
| 100 | 51.2 | 60.8 | – | OC1(Cc2ccc3ccccc3c2)c2ccccc2C2=NCCCN21 (stereo not drawn) | inactive | 81 | 1.3 |
| < 0 | 63.7 | 119 | – | O=C1O/C(=C\c2ccc(Cl)cc2)c2c1cccc2[N+](=O)[O-] | Active | < 20.7 | <0.2 |
